Values quoted from earlier work in US11246819B2, “Compositions and methods for inhibiting biofilm deposition and production” (THE TRUSTEES OF THE UNIVERSITY OF PENNSYLVANIA, priority 2016, dated 2022).
Where no end group is shown, it is not given here.

Experiments:
biofilm = conditions: 3 min incubation with biofilms, mutanase removed, then 6 hr incubation

protegrin: cysteine-rich, 18-residue β-sheet antimicrobial peptide (RGGRLCYCRRRFCVCVGR; not fully specified (bridges); ends and bridges not checked; UniProt P32194 131-148, looked up)
potency when linearized: lost potency | entry into human mast cells and degranulation (human mast cells): enter human mast cells and induce degranulation

retrocyclin
entry into human mast cells and degranulation (human mast cells): enter human mast cells and induce degranulation

B1: mutanase from Paenibacillus sp. strain RM1: bacterial mutanase, codon optimized for chloroplast expression (SEQ ID NO: 1) (protein)
chain: AGGPNLTPGKPITASGQSQTYSPQNVKDGNQNTYWESTNNAFPQWIQVDLGASTGIDQIVLKLPASWEARTQTLAVQGSLNGSTFTDIVGSANYVFSPSVGNNTVTINFTATSTRYVRLYVTANTGWPAAQLSEFEIYGSGDQTPAPDTYQAESAALSGGAKVNTDHAGYIGTGFVDGYWTQGATTTFSVNAPTAGNYDVTLRYGNATGSNKTVSLYVNGAKIRQTTLPSLPNWDSWSSKTETLNLNAGSNTIAYKYDPGDSGNVNLDQITVEASTSTPTPTPSPTPTPTPTPTPTPTPTPTPTPTPTPTPTPTPTPTPTPPPGGNIAIGKSISASSHTQTYVAENANDNDVNTYWEGGGNPSTLTLDLGANYNITSIVLKLNPSSIWAARTQTIQVLGHDQNTTTFSNLVSAKSYSFDPASGNTVTIPVTATVKRLQLNITSNSGAPAGQVAEFQVFGTPAPNPDLTITGMSWSPSSPVETDAITLNATVKNNGNASAAATTVNFYLNNELAGSAPVAALAAGASATVPLNVGAKTAATYAVGAKVDESNAVIELNESNNSYTNPASLVVAPVSSSDLVGTVSWTPSTPIANNAVSFNVNLKNQGTIASAGGSHGVTVVLKNASGSTVQTFSGSYTGSLAPGASVNITLPGTWTAAAGSYTVTATVAADANELPIKQANNANTASLTVYSARGASMPYSRYDTEDATLGGGATLKSAPTFDQALTASEATGQLYAALPSNGSYLQWTVRQGQGGAGVTMRFTMPDSADGMGLNGSLDVYVNGTKVKTVSLTSYYSWQYFSGDMPGDAPSAGRPLFRFDEVHWKLDTPLKPGDTIRIQKNNGDSLEYGVDFIEIEPVPAAISRPANSVSVTDYGAVPNDGQDDLTAFKAAVNAAVASDKILYIPEGTFHLGNMWEIGSVSNMIDHITITGAGIWYTNIQFTNANPASGGISLRITGKLDFSNVYLNSNLRSRYGQNAVYKGFMDNFGTNSVIRDVWVEHFECGFWVGDYGHTPAIRASGLLIENSRIRNNLADGVNFAQGTSNSTVRNSSLRNNGDDALAVWTSNTNGAPEGVNNTFSYNTIENNWRAGGIAFFGGSGHKADHNYIVDCVGGSGIRMNTVFPGYHFQNNTGIVFSDTTIVNCGTSKDLYNGERGAIDLEASNDAIRNVTFTNIDIINSQRDAIQFGYGGGFTNIVFNNININGTGLDGVTTSRFSGPHLGAAIFTYTGNGSATFNNLRTSNIAYPNLYYIQSGFNLIINNHHHHHH
modifications: codon optimized mutanase
biofilm degradation (biofilm): effectively degraded
